Results reported in ChEMBL document CHEMBL5523725, “Fragment-Based Anti-inflammatory Agent Design and Target Identification: Discovery of AF-45 as an IRAK4 Inhibitor to Treat Ulcerative Colitis and Acute Lung Injury” (J Med Chem, 2024).
Activity calls are given as the source filed them. No cut-off for these calls is given here.

Experiments:
RAW264.7 [1] = assay: Inhibition of NFkappaB signaling pathway in LPS-induced mouse RAW264.7 cells assessed as inhibition of p65 phosphorylation by Western blot analysis; assay type: cell-based; conditions: dose 2.5-10 µM
Mus musculus [2] = assay: Antiinflammatory activity in male C57BL/6 mouse model of DSS-induced ulcerative colitis assessed as reduction in colonic structure destruction at 10 to 20 mg/kg, po administered for 11 days with subsequent administration of DSS for 8 days by H and E staining based analysis; assay type: functional, organism-based; conditions: dose 10-20 mg/kg, time 11.0 day
[3] = target: T1, Interleukin-1 receptor-associated kinase 4 (Mus musculus) (UniProt Q8R4K2); assay: Thermal stabilization of IRAK4 in mouse RAW264.7 cells at 10 uM measured after 4 hrs by CETSA; assay type: cell-based
T1 sequence (whole entry): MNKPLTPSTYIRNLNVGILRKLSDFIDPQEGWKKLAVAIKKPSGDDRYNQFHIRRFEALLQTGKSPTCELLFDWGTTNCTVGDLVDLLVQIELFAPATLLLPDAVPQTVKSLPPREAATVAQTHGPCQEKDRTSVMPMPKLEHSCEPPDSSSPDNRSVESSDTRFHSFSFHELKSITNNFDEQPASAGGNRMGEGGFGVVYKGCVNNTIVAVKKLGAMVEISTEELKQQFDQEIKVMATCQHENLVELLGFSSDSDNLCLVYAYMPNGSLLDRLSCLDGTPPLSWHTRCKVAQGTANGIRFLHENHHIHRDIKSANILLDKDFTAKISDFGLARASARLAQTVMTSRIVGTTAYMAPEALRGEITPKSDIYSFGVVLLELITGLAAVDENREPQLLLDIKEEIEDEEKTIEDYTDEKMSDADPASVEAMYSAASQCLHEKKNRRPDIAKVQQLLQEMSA

[4] = target: Mitogen-activated protein kinase 14 (Homo sapiens) (UniProt Q16539); assay: Inhibition of p38alpha (unknown origin) at 10 uM relative to control
Mitogen-activated protein kinase 14 (Homo sapiens), sequence (Q16539 whole entry): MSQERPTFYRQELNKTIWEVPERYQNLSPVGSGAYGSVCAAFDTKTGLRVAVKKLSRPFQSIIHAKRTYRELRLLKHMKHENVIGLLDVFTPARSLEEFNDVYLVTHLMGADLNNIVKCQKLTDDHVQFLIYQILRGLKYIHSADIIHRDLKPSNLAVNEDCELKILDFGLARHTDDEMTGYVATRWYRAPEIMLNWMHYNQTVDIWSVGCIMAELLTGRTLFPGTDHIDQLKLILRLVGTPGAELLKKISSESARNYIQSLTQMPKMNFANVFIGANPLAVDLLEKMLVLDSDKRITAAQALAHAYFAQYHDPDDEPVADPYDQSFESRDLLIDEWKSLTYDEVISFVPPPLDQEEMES

[5] = Stability of compound in rat plasma at 10 mg/ml incubated for 8 hrs and measured every 2 hrs hy HPLC analysis; assay type: ADME, cell-free
[6] = Stability of compound in enzyme-free simulated gastric fluid at 10 mg/ml incubated for 8 hrs and measured every 2 hrs hy HPLC analysis; assay type: ADME; conditions: simulated gi fluid
Mus musculus [7] = assay: Antiinflammatory activity in male C57BL/6 mouse model of DSS-induced ulcerative colitis assessed as reduction in spleen to body weight ratio at 10 to 20 mg/kg, po administered for 11 days with subsequent administration of DSS for 8 days; assay type: functional, organism-based; conditions: dose 10-20 mg/kg, time 11.0 day
RAW264.7 [8] = assay: cells; conditions: Mus musculus
Description: Antiinflammatory activity in LPS-induced mouse RAW264.7 cells assessed as inhibition of TNF-alpha release pretreated for 30 mins followed by LPS stimulation and measured after 24 hrs by ELISA

[9] = Tmax in male Sprague-Dawley rat at 1 mg/kg, iv administered via tail vein and measured upto 24 hrs; assay type: ADME, organism-based; conditions: in vivo
RAW264.7 [10] = assay: Inhibition of NFkappaB signaling pathway in LPS-induced mouse RAW264.7 cells assessed as inhibition of IkappaBalpha degradation by Western blot analysis; assay type: cell-based; conditions: dose 2.5-10 µM
RAW264.7 [11] = assay: Inhibition of NFkappaB/MAPK signaling pathway in mouse RAW264.7 cells assessed as reduction in LPS-induced JNK phosphorylation at 50 uM by Western blot analysis; assay type: cell-based
Mus musculus [12] = assay: Antiinflammatory activity in LPS induced C57BL/6 mouse model of acute lung injury assessed as reduction in over activation of spleen at 20 to 40 mg/kg, ip preadministered for 30 mins followed by LPS administration and measured after 6 hrs by F4/80 labeling based immunohistochemical analysis; assay type: functional, organism-based; conditions: dose 20-40 mg/kg, time 6.5 hrs
[13] = Oral bioavailability in male Sprague-Dawley rat at 10 mg/kg measured upto 24 hrs; assay type: ADME, organism-based; conditions: in vivo
J774.A1 = assay: cells; conditions: Mus musculus
Description: Antiinflammatory activity in LPS-induced mouse J774.A1 cells assessed as inhibition of IL-6 release pretreated for 30 mins followed by LPS stimulation and measured after 24 hrs by ELISA

Mus musculus [14] = assay: Antiinflammatory activity in LPS induced C57BL/6 mouse model of acute lung injury assessed as reduction in macrophage infiltration in lung at 20 to 40 mg/kg, ip preadministered for 30 mins followed by LPS administration and measured after 6 hrs by F4/80 labeling based immunohistochemical analysis; assay type: functional, organism-based; conditions: dose 20-40 mg/kg, time 6.5 hrs
Mus musculus [15] = assay: Antiinflammatory activity in LPS induced C57BL/6 mouse model of acute lung injury assessed as inhibition of IL-6 release in serum at 20 to 40 mg/kg, ip preadministered for 30 mins followed by LPS administration and measured after 6 hrs by ELISA; assay type: functional, organism-based; conditions: dose 20-40 mg/kg, time 6.5 hrs

Activity [3]: Active
inhibition [4]: 0.03%
Stability [5]: Stable
Stability [6]: Stable
IC50 (RAW264.7 [8]): 2600 nM
Tmax [9]: 4.8 min
bioavailability [13]: 28.1%
IC50 (J774.A1): 1540 nM
SMILES: COc1cc2c(O[C@H]3CC[C@@H](N)CC3)ncnc2cc1OCc1ccccc1
inhibition (RAW264.7 [1]): Dose-Dependent Effect
Activity (Mus musculus [2]): Active
Activity (Mus musculus [7]): Active
inhibition (RAW264.7 [10]): Dose-Dependent Effect
inhibition (RAW264.7 [11]): Active
Activity (Mus musculus [12]): Active
Activity (Mus musculus [14]): Active
Activity (Mus musculus [15]): Active
